Reference: US20250154468A1, “METHOD FOR INDUCING DEDIFFERENTIATION OF ADIPOCYTES” (City University of Hong Kong, priority 2023, published 2025)

Tests used:
Format in all cases: cell-based, mouse
[1] = system: mitochondria in adipocytes; assay: MitoTracker Green (MTG) staining of mitochondria; conditions: pyruvic acid (1 mM) added to the hypertonic treatment
Description: Hypertonicity is known to disrupt the ionic homeostasis of cells and reduce the electronic potential in mitochondria, consequentially inhibiting ATP production.
To stain cells with MitoTracker (CST, product no. FM 9074), the 1 mM stock solution should be diluted directly into normal growth media to achieve a staining concentration ranging from 400 nM. The live cells were incubated for 15 minutes at 37° C. Following incubation, live imaging is necessary to visualize the staining pattern within the cells.
To mitigate mitochondrial stress, adipocytes were treated with 1 mM pyruvic acid (Sigma-Aldrich, product no. 107360) in hypertonic cultures. An equivalent volume of DMSO was added to the control samples. Following the treatment, the cells were either subjected to MTG staining or the supernatants were collected for EV isolation and analysis.

[2] = system: TNF-α, IL-6, RIP1, CEBPA, and MCP-1; assay: RT-qPCR of inflammatory genes in 3T3-L1 adipocytes
Description: To validate this, MEVs were isolated from the hypertonic treatment of 3T3-L1 adipocytes and subsequently applied to naïve 3T3-L1 adipocytes cultured in isotonic conditions (FIG. 6A).
(§1) Total RNA was isolated using the RNA Extraction Kit (Takara, product no. 9767) in accordance with the manufacturer's recommended protocol. The first-strand cDNA was synthesized using the PrimeScript RT Reagent Kit (Takara, product no. RR047A) for RT-PCR. In brief, a 10 μl system containing 2 μl of 5× PrimeScript RT Master Mix (Perfect Real Time) and RNase-Free Distilled Water and RNA solution, with a total RNA amount of 500 ng, was transferred to the ABI ProFlex PCR System (2×96-well) to perform reverse transcription. RT-PCR was then conducted using the Ex-Taq PCR kit (Takara, product no. RR820A) following the manufacturer's instructions. All RT-qPCR primer sequences were included in Table 2.

[3] = system: VDAC and NDUFA9 in the EVs of 3T3-L1 adipocytes; assay: Immunoblot of mitochondrial proteins in EVs of 3T3-L1 adipocytes
Description: To obtain lysates, cells were washed twice with cold PBS and lysed with 1 mL of RIPA buffer (Beyotime, product no. P0013B) at 4° C. for 1 hour with gentle rotation. The lysate was subsequently centrifuged at 12,000 g for 20 min at 4° C., and the resulting supernatant was quantified the protein concentration. Protein extracts were then separated by SDS-PAGE and transferred onto a NC membrane (Bio-Rad, product no. 1620112). The membranes were incubated overnight at 4° C. with antibodies against VDAC (CST, product no. 4866s, 1:1000), NDUFA9 (Abcam, product no. ab14713, 1:1000), CD81(Santa Cruz, product no. sc-166029, 1:1000), Non-phospho (Active) β-Catenin (CST, product no. 8814, 1:2000), β-Catenin (CST, product no. 9562, 1:1000) and 3-actin (Santa Cruz, product no. sc-47778, 1:1000). Following incubation with the appropriate secondary antibody (Abcam, product no. ab205719; Thermo Fisher, product no. 31460, 1:4000), the protein bands were visualized using an enhanced chemiluminescence (ECL) kit (Bio-Rad, product no. 170-5061) and captured using a Bio-red ChemiDoc. […]
The 3T3-L1 adipocytes were treated by isotonic and hypertonic medium. […] The resuspended suspensions contain approximately 80 μg protein each as determined by DC protein assay (Bio-Rad, product no. 5000114). […]

3T3-L1 adipocytes [4] = assay: Osteogenic re-differentiation of treated 3T3-L1 adipocytes; conditions: BML-284-treated adipocytes
Description: The osteogenic and chondrogenic re-differentiation capacities of dedifferentiated adipocytes were also examined. To induce osteogenic differentiation, 1×10^6 cells were seeded in 6-well plates and incubated overnight at 37° C. and 5% CO2. The culture medium was then replaced with StemPro Osteogenesis Differentiation medium (Thermo Fisher, product no. A1007201) and cells were maintained in this medium for up to 14 days, with medium renewal every 3 days. This medium contains specific factors that promote differentiation towards the osteogenic lineage, allowing the cells to deposit mineralized extracellular matrix and express osteogenic markers.
Alkaline phosphatase (ALP) staining was conducted on Day 9 of the feeder cell-mediated reprogramming process, following the manufacturer's instructions for the Alkaline Phosphatase Detection Kit (Sigma, product no. SCR004). The staining was performed to detect the activity of ALP, a marker of pluripotency, and to assess the success of the reprogramming process.
Total RNA was isolated using the RNA Extraction Kit (Takara, product no. 9767) in accordance with the manufacturer's recommended protocol. The first-strand cDNA was synthesized using the PrimeScript RT Reagent Kit (Takara, product no. RR047A) for RT-PCR. […]

3T3-L1 adipocytes [5] = assay: Loss of lipid droplets and morphological changes of 3T3-L1 adipocytes; set-up: loss of lipid droplets: dose or concentration left out as unconfirmed
Description: 3T3-L1 (ATCC CL-173) cells were cultured in DMEM medium (Thermo Fisher, product no. 11965126) containing 10% FBS, 2 mM L-glutamine and […] of penicillin-streptomycin (Thermo Fisher).
1.25×10^5 3T3-L1 were seeded in 6-well dishes and cultured at 37° C. and 5% CO2. The 10 μg/ml insulin (MedChemExpress, product no. HY-P0035), 1 μM dexamethasone (MedChemExpress, product no. HY-14648), 0.5 mM 3-isobutyl-1-methylxanthine (IBMX) (MedChemExpress, product no. HY-12318) and 2 μM rosiglitazone (Sigma, product no. R2408-10MG) (Differentiation medium) were supplemented in culture medium to constitute the differentiation medium for 2 days. Differentiation to SVF was induced by differentiation medium. The SVF cells were incubated for 5 days with differentiation medium. The medium was then changed to DMEM containing 10% FBS, 1×P/S, and 10 μg/ml insulin for 48 h, followed by changing to the culture medium.
[…] […] HY-Y0873), and maintained at 37° C. and 5% CO2. The medium was changed every 3 days, being careful to avoid shaking the dish to allow the hypertonic medium to diffuse slowly in the culture dish.

CD13 and Endoglin = assay: Immunostaining of surface markers of dedifferentiated adipocytes; conditions: BML-284 treated cells
Description: Twelve hours before the experiment, cells were seeded onto cover slips in 12-well dishes and cultured overnight at 37° C. and […]. Cells were fixed with […] for 10 min at 4° C. Next, the cells were either directly incubated with 1% BSA/PBS for 1 h or first permeabilized with 0.1% Triton X-100/PBS for 10 min at 4° C. before blocking with 1% BSA/PBS. Subsequently, CD13 primary antibody (Santa Cruz, product no. sc-13536 1:100) or Endoglin primary antibody (Santa Cruz, product no. sc-18838 1:100) was incubated with cells overnight at 4° C. Following 3 times washing in 0.5% tween/PBS, cells were incubated with secondary antibody (CST, product no. 8890S) in 1% BSA/PBS (1:400) in darkness for 1.5 hours at room temperature. After further washing, cells were mounted with DAPI (Thermo Fisher, product no. 62247) and examined with a Nikon A1HD25 confocal microscope.

3T3-L1 adipocytes [6] = assay: Chondrogenic re-differentiation of treated 3T3-L1 adipocytes; conditions: BML-284-treated adipocytes
Smad 9, Esrrb, and Sox2 = assay: RT-qPCR of multipotency / stem cell marker genes in adipocytes; conditions: BML-284 treated cells
Description: as §1

3T3-L1 adipocytes [7] = assay: AnnexinV-FITC/PI staining, apoptosis of adipocytes; conditions: comparison of BML-284 and hypertonic treatment
Description: The hypertonic dedifferentiation of adipocytes typically requires up to 7 days of culture in 2% PEG-300. Considering that TNF-α is recognized as a proinflammatory cytokine capable of inducing adipocyte apoptosis, an evaluation of the apoptotic status of adipocytes was carried out using AnnexinV-FITC/PI staining. […] It was concluded that the extended hypertonic treatment could lead to apoptosis alongside the dedifferentiation of adipocytes.

[8] = system: C/EBPβ, PPAR-γ, and adiponectin; assay: RT-qPCR of adipogenic markers in 3T3-L1 adipocytes; conditions: BML-284 treated cells
Description: as §1

adipocytes = assay: Oil Red O staining of adipocytes; conditions: BML-284 treatment
Description: Adipocytes were stained with Oil red O staining kit (Solarbio, product no. G1262) solution to detect the lipid droplets according to manufacturer's instructions. Specifically, cells were fixed with 10% formalin for 20 min at room temperature, followed by washing with 60% isopropanol for 5 min. Subsequently, staining was conducted with ORO solution for 20 min at room temperature to enable binding of the dye to the lipid droplets. Finally, the cells were washed with distilled water to eliminate any residual dye.

SVF adipocytes = assay: Loss of lipid droplets and morphological changes of SVF-derived adipocytes; set-up: loss of lipid droplets: dose or concentration left out as unconfirmed
Description: C57BL/6J mice were used for the present invention and maintained in a 12:12 h light-dark cycle. All mouse experiments were performed in accordance with the protocol approved by the Institutional Animal Research Ethics Sub-Committee of City University of Hong Kong and Department of Health, The Government of The Hong Kong Special Administrative Region. 6 to 8-week-old female were anesthetized with 4% of isoflurane by inhalation, and then inguinal, retroperitoneal WAT were removed. The tissues were shredded after washing in sterile PBS. Afterwards, the tissue pieces were incubated in type II collagenase (Sigma, product no. C6885) for 1 h at 37° C. before passed through a sterile 100 μm filter. SVF was obtained after 5 min centrifugation at 1000 rpm. Culture medium (DMEM supplemented with 10% FBS and 1% penicillin-streptomycin (all obtained from Thermo Fisher) was added to resuspend the cells, followed by culturing in 100 mm culture dishes. The following day, the culture medium was changed to remove the dead and non-adherent cells.
1.25×10^5 3T3-L1 were seeded in 6-well dishes and cultured at 37° C. and 5% CO2. […]

Structure (SMILES): CC(=O)C(=O)O [pyruvic acid]
- MTG staining of mitochondria in adipocytes [1]: effectively restored
- induction of TNF-α expression by hypertonic EVs ([2]; EVs from hypertonic culture with pyruvic acid): prevented
- induction of TNF-α and IL-6 expression in hypertonic culture ([2]; pyruvic acid added to the hypertonic culture, 2 hours): abolished
- levels of mitochondrial proteins VDAC and NDUFA9 in the EVs ([3]; pyruvic acid 1 mM in hypertonic culture): reduced

Structure (SMILES): COc1cccc(-c2cc(NCc3ccc4c(c3)OCO4)nc(N)n2)c1 [BML-284, 2-amino-4-(3,4-(methylenedioxy)benzylamino)-6-(3-methoxyphenyl)pyrimidine]
- expression of osteogenic markers after inducing treatment (3T3-L1 adipocytes [4]): increased expression
- loss of lipid droplets (3T3-L1 adipocytes [5]; 3T3-L1 adipocytes, isotonic culture, 4 days): 40%
- cells with elongated morphology (3T3-L1 adipocytes [5]; BML-284-treated 3T3-L1 adipocytes): significant increases
- expression of proteins of multipotency (CD13 and endoglin) (CD13 and Endoglin): significant increases
- expression of chondrogenic markers after inducing treatment (3T3-L1 adipocytes [6]): increased expression
- expression of marker genes of multipotency (Smad 9, Esrrb, Sox2) (Smad 9, Esrrb, and Sox2): significant increases
- apoptosis in 3T3-L1 adipocytes (3T3-L1 adipocytes [7]): did not lead to significant apoptosis
- expression of adipogenic genes (C/EBPβ, PPAR-γ, adiponectin) [8]: significant reductions
- Oil red staining (adipocytes): decreased
- cells with elongated morphology (SVF adipocytes; BML-284-treated SVF adipocytes): significant increases
- loss of lipid droplets (SVF adipocytes; SVF adipocytes, isotonic culture, 4 days): 80%

Structure (SMILES): O=C(/C=C/c1ccc(/C=C/C(=O)Nc2ccc(C3=NCCN3)cc2)cc1)Nc1ccc(C2=NCCN2)cc1 [GW4869]
- EVs level of NDUFA9 induced by hypertonic treatments ([3]; 10 μM GW4869, vs DMSO): substantially inhibited
